Values after ≈ are worked out from the molar mass of the structure shown. Starred links: 1 amine or outer side, 2 acyl side, 3 side chain; linkers in the order of their positions; H or OH if unused. Positions of bridges follow the written chain, without caps; N, C: chain ends. Non-standard residues stand in square brackets, D forms with d. Residues, ends and D or L forms follow the SMILES beside them. *: point of attachment. pTerphenylCO(4''-OnC5H11) = CCCCCOc1ccc(-c2ccc(-c3ccc(C(=O)*)cc3)cc2)cc1; X1 = NCC(=O)Nc1cc(CC[C@H](N[*:1])C(=O)[*:2])ccc1O; X2 = NC(N)=N[C@H]1CC(C(=O)[*:2])N([*:1])C1; Hyp = O=C(O)[C@@H]1C[C@@H](O)CN1; Orn = NCCC[C@H](N)C(=O)O
What was measured:
Format in all cases: functional
[1] = test system: Aspergillus fumigatus; experiment: Minimum inhibitory concentration against Aspergillus fumigatus
[2] = test system: Candida albicans; experiment: Minimum inhibitory concentration against Candida albicans (CAF2)
[3] = species: Mus musculus; experiment: Minimum inhibitory concentration against Candida albicans (CCH442) tested in mice
[4] = species: Rattus norvegicus; experiment: Minimum inhibitory concentration against Candida albicans (CCH442) tested in rats
[5] = test system: Candida albicans; experiment: Minimum inhibitory concentration against 41 strains of C. albicans; Range is 0.25-1.0 ug/mL

C[C@@H]1[C@H](O)[C@@H](C)/C=C/C=C/C=C/C=C/C=C/C=C/C=C/[C@H](O[C@@H]2O[C@H](C)[C@@H](O)[C@H](N)[C@@H]2O)C[C@@H]2O[C@](O)(C[C@@H](O)C[C@@H](O)[C@H](O)CC[C@@H](O)C[C@@H](O)CC(=O)O[C@H]1C)C[C@H](O)[C@H]2C(=O)O [AMPHOTERICIN B]
MIC [1]: 0.78 µg/mL (≈ 0.844 µM)
MIC [2]: 0.5 µg/mL (≈ 0.541 µM)
MIC [3]: 1 µg/mL (≈ 1.08 µM)
MIC [4]: 1 µg/mL (≈ 1.08 µM)

CCCCCOc1ccc(-c2ccc(-c3ccc(C(=O)N[C@H]4CCCNC(=O)C5C[C@H](N=C(N)N)CN5C(=O)[C@H]([C@@H](C)O)NC(=O)[C@H](CCc5ccc(O)c(NC(=O)CN)c5)NC(=O)[C@@H]5C[C@@H](O)CN5C(=O)[C@H]([C@@H](C)O)NC4=O)cc3)cc2)cc1 (stereo not given in full) ({pTerphenylCO(4''-OnC5H11)}-[Orn]T[Hyp][X1]T[X2]; lactam 1-C)
MIC [1]: > 100 µg/mL
MIC [5]: 0.25 µg/mL (≈ 0.213 µM)
MIC [2]: 0.25 µg/mL (≈ 0.213 µM)
MIC [3]: 0.5 µg/mL (≈ 0.425 µM)
MIC [4]: 0.5 µg/mL (≈ 0.425 µM)

OC(Cn1cncn1)(Cn1cncn1)c1ccc(F)cc1F [FLUCONAZOLE]
MIC [4]: 0.19 µg/mL (≈ 0.62 µM)

Source: ChEMBL document CHEMBL1145758, “In vivo characterization of A-192411: a novel fungicidal lipopeptide (II)” (2003)
